In brackets after ≈: the same amount, converted by molar mass. Each block holds one molecule with its values, some of them ahead of it. Activity calls are given as the source filed them. No cut-off for these calls is given here.
Columns and labels:
Aurora kinase A = molecular target: T1, Aurora kinase A (Homo sapiens, UniProt O14965); test: Inhibition of human recombinant Aurora A after 30 mins
T1 sequence (O14965 whole entry): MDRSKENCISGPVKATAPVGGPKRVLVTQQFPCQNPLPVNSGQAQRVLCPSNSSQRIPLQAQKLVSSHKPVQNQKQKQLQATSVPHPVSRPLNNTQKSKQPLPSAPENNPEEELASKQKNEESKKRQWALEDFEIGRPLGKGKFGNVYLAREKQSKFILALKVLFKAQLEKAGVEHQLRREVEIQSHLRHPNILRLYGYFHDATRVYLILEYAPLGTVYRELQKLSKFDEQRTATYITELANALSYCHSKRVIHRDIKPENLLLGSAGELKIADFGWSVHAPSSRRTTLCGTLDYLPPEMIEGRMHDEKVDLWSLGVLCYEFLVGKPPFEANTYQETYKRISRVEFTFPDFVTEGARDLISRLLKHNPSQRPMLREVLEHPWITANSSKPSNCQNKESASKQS

A2780 = test: Cytotoxicity against human A2780 cells after 96 hrs by MTT assay; assay type: functional, cell-based; details: A2780, 96 h
U2OS [1] = test: Inhibition of Aurora kinase in asynchronous human U2OS cells assessed as reduction of histone H3 serine-10 phosphorylation at 150 nM after 7 hrs immunofluorescence microscopy; assay type: cell-based
[2] = molecular target: Cyclin-dependent kinase 2 (Homo sapiens, UniProt P24941)
Aurora kinase B = Aurora kinase B (Homo sapiens, UniProt Q96GD4); test: Inhibition of human recombinant Aurora B after 60 mins
[3] = molecular target: Cyclin-dependent kinase 1 (Homo sapiens, UniProt P06493); test: Inhibition of CDK1
MIA PaCa-2 = test: Cytotoxicity against human MIAPaCa2 cells after 96 hrs by MTT assay; assay type: functional, cell-based; details: MIA PaCa-2, 96 h
[4] = molecular target: Cyclin-dependent kinase 4 (Homo sapiens, UniProt P11802); test: Inhibition of CDK4
[5] = Inhibition of Aurora kinase in human A549 cells assessed as concentration required for half-maximal inhibition of histone H3 serine-10 phosphorylation after 7 hrs immunofluorescence microscopy; assay type: cell-based; details: A549, 7 h
U2OS [6] = test: Inhibition of Aurora kinase in nocodazole-synchronized human U2OS cells assessed as reduction of histone H3 serine-10 phosphorylation at 0.07 to 10 uM after 2 hrs immunofluorescence microscopy; assay type: cell-based
[7] = molecular target: Cyclin-dependent kinase 7 (Homo sapiens, UniProt P50613); test: Inhibition of CDK7
[8] = molecular target: Cyclin-dependent kinase 9 (Homo sapiens, UniProt P50750); test: Inhibition of CDK9
MCF7 = test: Induction of p53 protein expression in human MCF7 cells at 0.07 to 10 uM after 7 hrs by fluorescent microscopy; assay type: functional, cell-based
HeLa = test: Cytotoxicity against human HeLa cells after 96 hrs by MTT assay; assay type: functional, cell-based
BXPC-3 = test: Cytotoxicity against human BxPC3 cells after 96 hrs by MTT assay; assay type: functional, cell-based; details: BXPC-3, 96 h
A549 [9] = test: Cell cycle arrest in asynchronous human A549 cells assessed as accumulation of cyclin B-negative diploid and tetraploid cells at G1 phase at 2 uM after 24 hrs by FACS analysis; assay type: functional, cell-based
[10] = Cytotoxicity against human MESSA cells after 96 hrs by MTT assay; assay type: functional, cell-based; details: MES-SA
A549 [11] = test: Cell cycle arrest in asynchronous human A549 cells assessed as accumulation of cyclin B-negative diploid cells at G1 phase at 0.5 uM after 24 hrs by FACS analysis; assay type: functional, cell-based
Liver microsomes = test: Intrinsic clearance in rat liver microsomes by LC/MS/MS analysis; assay type: ADME, Microsome
HCT-116 = test: Cytotoxicity against human HCT116 cells after 96 hrs by MTT assay; assay type: functional, cell-based; details: HCT-116, 96 h
HL-60 = test: Cytotoxicity against human HL60 cells after 96 hrs by MTT assay; assay type: functional, cell-based; details: HL-60, 96 h
K562 = test: Cytotoxicity against human K562 cells after 96 hrs by MTT assay; assay type: functional, cell-based; details: K562, 96 h
COLO 205 = test: Cytotoxicity against human COLO205 cells after 96 hrs by MTT assay; assay type: functional, cell-based; details: COLO 205, 96 h
CCRF-CEM = test: Cytotoxicity against human CCRF-CEM cells after 96 hrs by MTT assay; assay type: functional, cell-based
[12] = Cmax in Wistar rat at 10 mg/kg, po after 24 hrs by LC/MS/MS analysis; assay type: ADME, organism-based; parameters: dose 10 mg/kg, route oral; details: in vivo
[13] = Half life in rat liver microsomes by LC/MS/MS analysis; assay type: ADME, Microsome
MV4-11 = test: Cytotoxicity against human MV4-11 cells after 96 hrs by MTT assay; assay type: functional, cell-based; details: MV4-11, 96 h
[14] = Aqueous solubility by turbidimetric analysis; assay type: physicochemical
[15] = Fraction unbound in rat plasma by equilibrium dialysis; assay type: ADME, cell-free
SAOS-2 = test: Cytotoxicity against human Saos2 cells after 96 hrs by MTT assay; assay type: functional, cell-based; details: SAOS-2, 96 h
[16] = AUC (0 to 24 hrs) in Wistar rat at 10 mg/kg, po after 24 hrs by LC/MS/MS analysis; assay type: ADME, organism-based; parameters: time < 24 hr, dose 10 mg/kg, route oral; details: plasma
NCI-H460 = test: Cytotoxicity against human NCI-H460 cells after 96 hrs by MTT assay; assay type: functional, cell-based; details: NCI-H460, 96 h
A549 [17] = test: Cell cycle arrest in asynchronous human A549 cells assessed as accumulation of cyclin B-positive tetraploid cells at G2/M phase at 0.5 to 2 uM after 7 hrs by FACS analysis; assay type: functional, cell-based
[18] = Elimination half life in Wistar rat at 10 mg/kg, po by LC/MS/MS analysis; assay type: ADME, organism-based; parameters: dose 10 mg/kg, route oral; details: in vivo, read-out: beta t1/2 (converted)
HT-29 = test: Cytotoxicity against human HT-29 cells after 96 hrs by MTT assay; assay type: functional, cell-based; details: HT-29, 96 h
[19] = Oral bioavailability in Wistar rat at 10 mg/kg after 24 hrs by LC/MS/MS analysis; assay type: ADME, organism-based; details: in vivo
HuP-T4 = test: Cytotoxicity against human HUPT4 cells after 96 hrs by MTT assay; assay type: functional, cell-based; details: HuP-T4, 96 h
[20] = Apparent permeability across human Caco-2 cell membrane; assay type: ADME, cell-based
A549 [21] = test: Effect on mitotic index in asynchronous human A549 cells assessed as appearance of misaligned chromosomes with shortened spindle fibres at 0.5 uM after 8 hrs […]; assay type: functional, cell-based
[22] = Octanol-aqueous buffer partition coefficient, log D at pH 7.4 by shake-flask method; assay type: physicochemical
[23] = Dissociation constant, pKa by pH-metric titration method; assay type: physicochemical
[24] = Clearance in Wistar rat at 10 mg/kg, po after 24 hrs by LC/MS/MS analysis; assay type: ADME, organism-based; parameters: dose 10 mg/kg, route oral; details: in vivo

Cyclin-dependent kinase 1, sequence (P06493 whole entry): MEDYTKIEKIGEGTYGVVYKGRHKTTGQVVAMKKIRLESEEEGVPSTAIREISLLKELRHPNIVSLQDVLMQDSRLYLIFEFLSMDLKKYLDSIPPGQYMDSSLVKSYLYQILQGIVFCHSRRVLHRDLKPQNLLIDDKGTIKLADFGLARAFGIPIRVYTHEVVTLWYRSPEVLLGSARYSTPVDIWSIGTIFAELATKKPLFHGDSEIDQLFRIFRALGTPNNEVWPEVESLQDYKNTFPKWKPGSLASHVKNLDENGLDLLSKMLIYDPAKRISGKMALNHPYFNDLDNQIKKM
Aurora kinase B, sequence (Q96GD4 whole entry): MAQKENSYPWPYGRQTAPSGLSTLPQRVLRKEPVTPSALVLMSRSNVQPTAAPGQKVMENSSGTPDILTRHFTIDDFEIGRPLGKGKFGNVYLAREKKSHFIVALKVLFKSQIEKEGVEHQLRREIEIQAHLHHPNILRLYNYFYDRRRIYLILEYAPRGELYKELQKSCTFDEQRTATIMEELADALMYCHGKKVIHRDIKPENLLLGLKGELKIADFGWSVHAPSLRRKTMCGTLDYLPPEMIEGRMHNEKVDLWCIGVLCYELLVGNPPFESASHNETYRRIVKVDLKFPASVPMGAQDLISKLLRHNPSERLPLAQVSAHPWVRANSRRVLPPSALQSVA
Cyclin-dependent kinase 4, sequence (P11802 whole entry): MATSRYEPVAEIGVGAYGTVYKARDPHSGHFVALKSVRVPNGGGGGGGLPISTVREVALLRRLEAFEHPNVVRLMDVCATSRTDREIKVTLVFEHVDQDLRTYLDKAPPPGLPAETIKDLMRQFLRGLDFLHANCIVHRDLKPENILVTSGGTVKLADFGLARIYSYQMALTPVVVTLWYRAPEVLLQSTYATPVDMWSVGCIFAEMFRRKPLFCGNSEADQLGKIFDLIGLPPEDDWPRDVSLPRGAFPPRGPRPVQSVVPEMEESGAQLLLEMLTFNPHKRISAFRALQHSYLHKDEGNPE
Cyclin-dependent kinase 9, sequence (P50750 whole entry): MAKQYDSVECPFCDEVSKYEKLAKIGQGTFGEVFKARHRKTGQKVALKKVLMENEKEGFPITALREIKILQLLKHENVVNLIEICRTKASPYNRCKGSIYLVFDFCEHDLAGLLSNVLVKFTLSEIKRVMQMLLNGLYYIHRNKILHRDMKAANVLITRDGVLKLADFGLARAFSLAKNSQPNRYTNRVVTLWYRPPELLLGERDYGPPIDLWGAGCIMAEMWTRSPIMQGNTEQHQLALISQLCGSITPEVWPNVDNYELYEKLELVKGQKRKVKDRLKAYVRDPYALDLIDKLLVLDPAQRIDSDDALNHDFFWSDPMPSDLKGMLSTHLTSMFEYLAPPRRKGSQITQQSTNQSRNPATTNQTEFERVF
Cyclin-dependent kinase 7, sequence (P50613 whole entry): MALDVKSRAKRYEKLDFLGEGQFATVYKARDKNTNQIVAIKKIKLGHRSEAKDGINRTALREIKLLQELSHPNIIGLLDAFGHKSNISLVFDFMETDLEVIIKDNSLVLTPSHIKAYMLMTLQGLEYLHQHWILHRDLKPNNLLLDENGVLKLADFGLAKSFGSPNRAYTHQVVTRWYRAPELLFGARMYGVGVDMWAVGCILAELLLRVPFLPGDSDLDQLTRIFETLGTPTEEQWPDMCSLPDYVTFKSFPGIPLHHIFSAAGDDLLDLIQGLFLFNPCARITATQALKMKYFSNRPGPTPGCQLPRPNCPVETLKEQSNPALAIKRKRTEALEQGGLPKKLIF

Structure (SMILES): Cc1nc(C)c(-c2ccnc(Nc3ccc(N4CCOCC4)cc3)n2)s1
Ki (Aurora kinase A): 4 nM
IC50 (A2780): 332 nM
Activity (U2OS [1]): inactive
Ki [2]: 1040 nM
Ki (Aurora kinase B): 9 nM
Ki [3]: > 10000 nM
IC50 (MIA PaCa-2): 871 nM
Ki [4]: 2170 nM
IC50 [5]: 860 nM
inhibition (U2OS [6]): Active
Ki [7]: > 10000 nM
Ki [8]: > 10000 nM
Activity (MCF7): inactive

Structure (SMILES): CNc1ccc(Nc2nccc(-c3sc(C)nc3C)n2)cc1
Ki (Aurora kinase A): 18 nM
IC50 (A2780): 147 nM
Ki [2]: 286 nM
Ki (Aurora kinase B): 33 nM
Ki [3]: 909 nM
IC50 (MIA PaCa-2): 235 nM
Ki [4]: 840 nM
IC50 [5]: 1760 nM
Ki [7]: 4240 nM
Ki [8]: 348 nM

Structure (SMILES): CCNc1nc(C)c(-c2ccnc(Nc3ccc(N4CCOCC4)cc3)n2)s1
Ki (Aurora kinase A): 14 nM
IC50 (A2780): 81 nM
Activity (U2OS [1]): inactive
Ki [2]: 151 nM
Ki (Aurora kinase B): 6 nM
Ki [3]: > 10000 nM
IC50 (MIA PaCa-2): 173 nM
Ki [4]: 196 nM
IC50 [5]: 570 nM
inhibition (U2OS [6]): Active
Ki [7]: > 10000 nM
Ki [8]: 559 nM
Activity (MCF7): inactive

Second part, led by results:

Ki (Aurora kinase A): 12 nM
Ki [2]: 297 nM
Ki (Aurora kinase B): 9.7 nM
Ki [3]: 851 nM
Ki [4]: 22 nM
Ki [7]: 1080 nM
Ki [8]: 448 nM
Structure (SMILES): CNc1nc(C)c(-c2ccnc(Nc3ccc(N4CCN(C(C)=O)CC4)cc3)n2)s1
IC50 (A2780): 221 nM
IC50 (MIA PaCa-2): 622 nM

Ki (Aurora kinase A): 6.9 nM
Ki (Aurora kinase B): 15 nM
Ki [3]: 2520 nM
clearance (Liver microsomes): 0.296 mL/min/mg
Cmax [12]: 900 nM
half-life [13]: 4.7 min
solubility kinetic [14]: 20 µM (≈ 6.51 µg/mL)
fraction unbound [15]: 0.96
IC50 [5]: 2600 nM
AUC(0-t) at 24 h [16]: 6.9 µM·h
half-life [18]: 264 min
bioavailability [19]: 7%
Papp [20]: 49.2 ×10⁻⁶ cm/s
Ki [7]: 4010 nM
logD [22]: 1.33
pKa [23]: 5.5
Ki [8]: 575 nM
CL/F [24]: 70 mL/min/kg
Structure (SMILES): Cc1nc(C)c(-c2ccnc(Nc3ccc(N(C)C)cc3)n2)s1
IC50 (HeLa): 190 nM
IC50 (BXPC-3): 93 nM
IC50 (A2780): 157 nM
Activity (A549 [9]): Active
IC50 [10]: 110 nM
Activity (A549 [11]): Active
IC50 (HCT-116): 133 nM
IC50 (HL-60): 128 nM
IC50 (MIA PaCa-2): 177 nM
IC50 (K562): 40 nM
IC50 (COLO 205): 84 nM
IC50 (CCRF-CEM): 170 nM
IC50 (MV4-11): 110 nM
IC50 (SAOS-2): 320 nM
IC50 (NCI-H460): 180 nM
Activity (A549 [17]): Active
inhibition (U2OS [6]): Active
IC50 (HT-29): 128 nM
IC50 (HuP-T4): 156 nM
Activity (A549 [21]): Active

Ki (Aurora kinase A): 0.4 nM
Ki [2]: 239 nM
Ki (Aurora kinase B): 2 nM
Ki [3]: 706 nM
Ki [4]: 666 nM
IC50 [5]: 130 nM
Ki [7]: 243 nM
Ki [8]: 11 nM
Structure (SMILES): COc1cc(Nc2nccc(-c3sc(C)nc3C)n2)cc(OC)c1OC
IC50 (A2780): 10 nM
Activity (U2OS [1]): inactive
IC50 (MIA PaCa-2): 22 nM
inhibition (U2OS [6]): Active
Activity (MCF7): inactive

Ki (Aurora kinase A): 5 nM
Ki [2]: 32 nM
Ki (Aurora kinase B): 4 nM
Ki [3]: 240 nM
Ki [4]: 38 nM
IC50 [5]: 760 nM
Ki [7]: 171 nM
Ki [8]: 9 nM
Structure (SMILES): CCNc1nc(C)c(-c2ccnc(Nc3ccc(CNC(C)=O)cc3)n2)s1
IC50 (A2780): 81 nM
IC50 (MIA PaCa-2): 230 nM
